Measurements as given in ChEMBL document CHEMBL5303304, “EUbOPEN Chemogenomics Library - IncuCyte” (2023).

Key:
Format in all cases: toxicity, cell-based
[1] = test system: HEK-293T; assay: Incucyte cell viability with HEK293T; conditions: human, 10 µM, compound concentration 10 uM
[2] = test system: Fibroblast; assay: Incucyte cell viability with human fibroblast; conditions: 10 µM, compound concentration 10 uM
[3] = test system: U2OS; assay: Incucyte cell viability with U2OS; conditions: human, 10 µM, compound concentration 10 uM
Also: unitless GR value; below 1 slowed growth and below 0 cell loss.

Row | Structure (SMILES) | Growth Rate ([1]; 0 h, replicate number 1) | Growth Rate ([2]; 6 h, replicate number 1) | Growth Rate ([2]; 12 h, replicate number 2) | Growth Rate ([2]; 18 h, replicate number 1) | Growth Rate ([2]; 24 h, replicate number 2) | Growth Rate ([3]; 0 h, replicate number 1) | Growth Rate ([3]; 6 h, replicate number 1) | Growth Rate ([3]; 12 h, replicate number 1) | Growth Rate ([3]; 24 h, replicate number 1) | Growth Rate ([1]; 12 h, replicate number 2) | Growth Rate ([1]; 18 h, replicate number 2) | Growth Rate ([1]; 24 h, replicate number 1) | Growth Rate ([1]; 24 h, replicate number 2) | Growth Rate ([2]; 0 h, replicate number 2) | Growth Rate ([2]; 6 h, replicate number 2) | Growth Rate ([2]; 18 h, replicate number 2) | Growth Rate ([1]; 18 h, replicate number 1) | Growth Rate ([3]; 6 h, replicate number 2) | Growth Rate ([3]; 12 h, replicate number 2) | Growth Rate ([3]; 18 h, replicate number 1) | also measured
1 | CCOC(=O)c1c(/C(C#N)=C\N)c2ccc(Cl)c(Cl)c2n1C | 0.22 | -0.96 | 0.88 | 0.7 | 0.9 | -0.98 | 0.92 | 0.97 | 0.94 | – | – | – | – | – | – | – | – | – | – | – | Growth Rate ([2]; 0 h, replicate number 1): 0.55; Growth Rate ([2]; 24 h, replicate number 1): 0.75; Growth Rate ([3]; 0 h, replicate number 2): 0.82
2 | Cc1noc(C)c1-c1cnc2c(-c3ccc(C(=O)O)cc3)cn([C@@H](C)c3ccccn3)c2c1 [PLX-51107] | 0.25 | – | 0.35 | -0.39 | 0.49 | -0.72 | 0.16 | 0.94 | 0.93 | 0.89 | 0.62 | 0.93 | 0.48 | -0.82 | -0.59 | 0.36 | – | – | – | – | Growth Rate ([2]; 0 h, replicate number 1): -0.53; Growth Rate ([2]; 12 h, replicate number 1): -0.99; Growth Rate ([2]; 24 h, replicate number 1): -0.1; Growth Rate ([3]; 0 h, replicate number 2): -0.91; Growth Rate ([3]; 24 h, replicate number 2): 1
3 | CC1(C)Cc2nc(C3CCCC3)c([C@@H](F)c3ccc(C(F)(F)F)cc3)c(C3CCCCC3)c2[C@@H](O)C1 | 0.94 | 0.71 | 0.89 | 0.51 | 0.95 | – | – | – | 0.87 | – | 0.91 | 0.83 | 0.89 | -0.59 | – | 0.82 | 0.88 | 0.48 | 0.54 | – | Growth Rate ([1]; 0 h, replicate number 2): -0.11; Growth Rate ([1]; 6 h, replicate number 1): 0.88; Growth Rate ([2]; 0 h, replicate number 1): -0.22; Growth Rate ([2]; 12 h, replicate number 1): 0.46; Growth Rate ([2]; 24 h, replicate number 1): 0.38; Growth Rate ([3]; 0 h, replicate number 2): 0.96; Growth Rate ([3]; 18 h, replicate number 2): 0.82
4 | O=S(=O)(Nc1ccc(C(O)(C(F)(F)F)C(F)(F)F)cc1)c1cccs1 | – | – | – | 0.89 | 0.87 | -0.75 | 0.58 | 0.46 | 0.8 | 0.89 | – | 0.87 | 0.9 | 0.56 | 0.87 | 0.93 | 0.88 | – | – | 0.7 | Growth Rate ([1]; 6 h, replicate number 1): 0.89; Growth Rate ([2]; 12 h, replicate number 1): 0.76; Growth Rate ([3]; 0 h, replicate number 2): 0.65
5 | CCn1c(CNC(=O)c2nc(Cl)cnc2N)[n+](CC)c2ccc(C(=O)N(C)CCN(C)C)cc21.[Cl-] | 0.65 | – | 0.59 | – | 0.96 | 0.81 | 0.28 | 0.84 | 0.84 | 0.57 | 0.77 | – | 0.84 | -0.38 | -0.24 | 0.7 | – | 0.97 | – | – | Growth Rate ([1]; 0 h, replicate number 2): 0.44; Growth Rate ([1]; 6 h, replicate number 2): 0.55
6 | CC(C)n1cnc2c(Nc3cccc(Cl)c3)nc(N[C@H]3CCCC[C@@H]3N)nc21 | – | -1 | -0.16 | – | 0.13 | -1 | 0.85 | -0.26 | -0.14 | -0.59 | -0.35 | -0.46 | -0.25 | – | -0.94 | -0.01 | -0.56 | 0.88 | -0.22 | -0.12 | Growth Rate ([1]; 6 h, replicate number 1): -0.96; Growth Rate ([1]; 6 h, replicate number 2): -0.92; Growth Rate ([1]; 12 h, replicate number 1): -0.82; Growth Rate ([3]; 18 h, replicate number 2): -0.25; Growth Rate ([3]; 24 h, replicate number 2): -0.2
7 | CC(C)(O)[C@H]1CC[C@H](Nc2ccc3ncc(-c4cccc(C(F)(F)F)c4)n3n2)CC1 [NUVISERTIB] | – | -0.74 | -0.72 | -0.46 | -0.47 | -0.52 | 0.88 | 0.46 | 0.32 | -0.3 | -0.12 | -0.27 | -0.02 | – | -0.83 | -0.6 | -0.39 | 0.42 | 0.24 | 0.38 | Growth Rate ([1]; 0 h, replicate number 2): -0.24; Growth Rate ([1]; 6 h, replicate number 1): -0.61; Growth Rate ([1]; 6 h, replicate number 2): -0.3; Growth Rate ([1]; 12 h, replicate number 1): -0.5; Growth Rate ([2]; 12 h, replicate number 1): -0.53; Growth Rate ([2]; 24 h, replicate number 1): -0.39; Growth Rate ([3]; 18 h, replicate number 2): 0.15; Growth Rate ([3]; 24 h, replicate number 2): 0.08
8 | CC1CCN(C(=O)[C@@H](CCn2cccc2C#N)NS(=O)(=O)c2cccc3[nH]ccc23)CC1 | – | – | – | – | – | 0.26 | 0.55 | – | 0.86 | – | – | – | – | -0.84 | – | 0.96 | – | 0.85 | 0.81 | – | Growth Rate ([1]; 6 h, replicate number 2): 0.99
9 | COc1ccc(-n2c(C)c([N+](=O)[O-])c3ccc(O)cc32)cc1 | 0.26 | – | – | -0.35 | – | – | – | – | 0.91 | – | – | – | – | 0.13 | – | – | – | – | 0.65 | 0.88 | Growth Rate ([1]; 0 h, replicate number 2): -0.46; Growth Rate ([3]; 18 h, replicate number 2): 0.61; Growth Rate ([3]; 24 h, replicate number 2): 0.77
10 | CC(C)(O)CNC(=O)N1C(=O)N(c2cccc(C(F)(F)F)c2)C2=C(C(=O)CC2)[C@@H]1c1ccc(C#N)cc1 | 0.26 | 0.57 | – | – | – | 0.14 | 0.14 | 0.58 | 0.76 | 0.97 | – | – | – | – | – | 0.94 | – | 0.9 | – | 0.65 | –
11 | CC(C)C[C@H](NC(=O)[C@@H](O)[C@H](N)Cc1ccccc1)C(=O)O [UBENIMEX] | 0.14 | – | 0.72 | – | 0.91 | 0.42 | 0.42 | 0.82 | 0.89 | – | 0.98 | 0.59 | 0.92 | -0.85 | – | 0.83 | 0.49 | – | – | 0.94 | Growth Rate ([1]; 6 h, replicate number 1): 0.49; Growth Rate ([1]; 12 h, replicate number 1): 0.55
12 | Cn1ncnc1COc1nn2c(-c3cc(F)ccc3F)nnc2cc1C(C)(C)C | – | – | 0.29 | – | 0.57 | – | 0.51 | – | – | 0.63 | 0.77 | 0.28 | 0.88 | – | – | 0.56 | 0.42 | – | 0.78 | – | Growth Rate ([1]; 0 h, replicate number 2): 0.38; Growth Rate ([1]; 6 h, replicate number 2): 0.37; Growth Rate ([1]; 12 h, replicate number 1): 0.42; Growth Rate ([2]; 0 h, replicate number 1): 0.93; Growth Rate ([3]; 18 h, replicate number 2): 0.76; Growth Rate ([3]; 24 h, replicate number 2): 0.76
13 | Cc1nsc(Nc2cnc(C(F)(F)F)cn2)c1C(=O)Nc1ccc(O[C@H]2CCCN(CC(F)(F)F)C2)nc1 | -0.98 | -0.21 | – | -0.36 | -0.3 | – | 0.72 | 0.39 | 0.03 | -0.54 | -0.41 | -0.25 | -0.32 | – | -0.93 | -0.45 | -0.3 | 0.73 | 0.59 | 0.06 | Growth Rate ([1]; 6 h, replicate number 1): -0.28; Growth Rate ([1]; 6 h, replicate number 2): -0.6; Growth Rate ([1]; 12 h, replicate number 1): -0.36; Growth Rate ([2]; 0 h, replicate number 1): -1; Growth Rate ([2]; 12 h, replicate number 1): -0.43; Growth Rate ([2]; 24 h, replicate number 1): -0.23; Growth Rate ([3]; 0 h, replicate number 2): 0.91; Growth Rate ([3]; 18 h, replicate number 2): 0.57; Growth Rate ([3]; 24 h, replicate number 2): 0.52
14 | O=C(NC1CCNCC1)c1n[nH]cc1NC(=O)c1c(Cl)cccc1Cl [AT-7519] | -0.17 | 0.78 | -0.1 | 0.17 | -0.17 | – | 0.44 | 0.18 | -0.08 | -0.63 | -0.51 | -0.15 | -0.4 | -0.43 | 0.01 | -0.23 | -0.2 | 0.71 | 0.4 | 0.05 | Growth Rate ([1]; 6 h, replicate number 1): -0.3; Growth Rate ([1]; 6 h, replicate number 2): -0.74; Growth Rate ([1]; 12 h, replicate number 1): -0.27; Growth Rate ([2]; 0 h, replicate number 1): -1; Growth Rate ([2]; 12 h, replicate number 1): 0.38; Growth Rate ([2]; 24 h, replicate number 1): 0.08; Growth Rate ([3]; 24 h, replicate number 2): 0.03
